# In patent publication US10765654B2, “Methods and compounds for treating cancer” (University of Vermont and State Agricultural College, priority 2011, dated 2020):
# Test system: GBM12 astrocytoma GSCs
# Assay: Orthotopic graft in athymic mice, survival
# Type: in vivo
# Conditions: GBM 12 engrafted mice; GTA alone 5.8 g/kg daily; p<0.0001
# Method: Cells (2,500 cells in 4 μl) were injected into the right striatum (1 mm anterior, 1.5 mm lateral to bregma, 3.5 mm deep) of adult athymic mice (8-week-old, 25-28 g). […]
# For in vivo imaging, mice were injected i.p. with 150 mg/kg D-luciferin potassium salt 5 minutes prior to imaging under 1.5% inhaled isoflurane. Peak efflux was determined from an average of 15 bioluminescent acquisitions, with 1 min inter-acquisition intervals, using the auto-exposure setting. Total photon efflux was determined by drawing regions of interest over the emitted region and setting thresholds for each mouse to maximize the number of pixels encircled using Living Image acquisition and analysis software (Version 3.0.3.5, Caliper Life Sciences, Hopkinton, Mass.). […]
# Tumor bioluminescence (rate of flux change over time) and tumor volume were compared using a Mann-Whitney test. Survival was analyzed using Kaplan-Meier curves [Kaplan, EL and P Meier. (1958) J Am Stat Assoc 53:457-481] and comparisons between groups were analyzed with a log-rank test [Peto, R and J Peto. […]
compound,measurement,value
"CC(=O)OCC(COC(C)=O)OC(C)=O [GTA, glyceryltriacetate]",Survival relative to vehicle treated mice,increased survival relative to vehicle treated mice
